The test has as its target T1, human recombinant PAK1-KD protein (Homo sapiens, UniProt Q13153).
T1 construct: made in house; host or cells: Tini [sic] cells infected with recombinant baculovirus
Put plainly: PAK1-KD (kinase domain) IC50 Zlyte assay. The format is biochemical. Conditions: Z'-LYTE FRET peptide substrate (Ser/Thr19), 60-minute incubation at 22° C. The text has this: Determination of the activity of PAK activity of a compound of formula I was accomplished using the PAK1 inhibition assay in Biological Example 1.
PAK1-KD (Kinase Domain) IC50 Zlyte Assay Protocol
Activity of human recombinant PAK1-KD protein may be assessed in vitro by assay of the phosphorylation of a FRET peptide substrate. Catalytically active human recombinant PAK1-KD protein is obtained by purification from Tini cells infected with a human PAK1-KD recombinant baculovirus expression vector.
The activity/inhibition of PAK1-KD was estimated by measuring the phosphorylation of a FRET peptide substrate (Ser/Thr19) labeled with Coumarin and Fluorescein using Z′-LYTE™ assay (Invitrogen). The peptide substrate is a consensus sequence (KKRNRRLSVA) based on various PAK substrates reported in the scientific literature. The 10 μL assay mixtures contained 50 mM HEPES (pH 7.5), 0.01% Brij-35, 10 mM MgCl2, 1 mM EGTA, 2 μM FRET peptide substrate, and 20 pM PAK1-KD. Incubations were carried out at 22° C. in black polypropylene 384-well plates (Corning Costar). […] Following the 60-minute incubation, the assay mixtures were quenched by the addition of 5 μL of Z′-LYTE™ development reagent, and 1 hour later the emissions of coumarin (445 nm) and fluorescein (520 nm) were determined after excitation at 400 nm using an Envision plate reader (Perkin Elmer). An emission ratio (445 nm/520 nm) was determined to quantify the degree of substrate phosphorylation.

Bounds are passed on as bounds.

What is called IC50 is the concentration that gives 50% inhibition.

T1 sequence (Q13153 270-521 limits assumed): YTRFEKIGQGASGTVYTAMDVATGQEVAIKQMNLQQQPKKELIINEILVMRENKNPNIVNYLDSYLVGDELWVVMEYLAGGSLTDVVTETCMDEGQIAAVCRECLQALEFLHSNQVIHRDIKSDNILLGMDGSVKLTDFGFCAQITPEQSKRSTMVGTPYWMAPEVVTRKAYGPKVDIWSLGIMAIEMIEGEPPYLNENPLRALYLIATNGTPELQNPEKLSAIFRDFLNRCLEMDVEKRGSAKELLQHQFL

`CCn1c(=O)c(-c2ccc([S+]([O-])C3CC3)cc2)cc2cnc(NCCC3CCN(C)CC3)nc21` (centres unmarked) [Compound I-12, 6-(4-cyclopropylsulfinylphenyl)-8-ethyl-2-[2-(1-methyl-4-piperidyl)ethylamino]pyrido[2,3-d]pyrimidin-7-one]: the IC50 was determined as 0.874 µM. In the case of `CCn1c(=O)c(-c2ccc([S+](C)[O-])cc2)cc2cnc(NCCC3CCN(C)CC3)nc21` (centres unmarked) [Compound I-8, 8-ethyl-2-[2-(1-methyl-4-piperidyl)ethylamino]-6-(4-methylsulfinylphenyl)pyrido[2,3-d]pyrimidin-7-one], the half-inhibitory concentration (IC50) was above 4.5 µM.

`CCn1c(=O)c(-c2cccc(S(C)(=O)=O)c2)cc2cnc(NCCC3CCN(C)CC3)nc21` [Compound I-4, 8-ethyl-2-[2-(1-methyl-4-piperidyl)ethylamino]-6-(3-methylsulfonylphenyl)pyrido[2,3-d]pyrimidin-7-one]: the IC50 amounted to 1.4 µM.

As to `CCNc1ncc2cc(-c3ccc(S(C)(=O)=O)cc3Cl)c(=O)n(C[C@H]3CC[C@H](N)CC3)c2n1` [Compound I-14, 8-(((1R,4R)-4-aminocyclohexyl)methyl)-6-(2-chloro-4-(methylsulfonyl)phenyl)-2-(ethylamino)pyrido[2,3-d]pyrimidin-7(8H)-one], the IC50 was found to be 0.175 µM. As to `CCn1c(=O)c(-c2ccc(S(=O)(=O)C3CC3)cc2Cl)cc2cnc(NCCC3CCN(C)CC3)nc21` [Compound I-13, 6-(2-chloro-4-cyclopropylsulfonyl-phenyl)-8-ethyl-2-[2-(1-methyl-4-piperidyl)ethylamino]pyrido[2,3-d]pyrimidin-7-one], the half-inhibitory concentration (IC50) worked out at 0.0683 µM. `CCN1CCC(CCNc2ncc3cc(-c4cccc(S(C)(=O)=O)c4)c(=O)n(CC)c3n2)CC1` [Compound I-2, 8-ethyl-2-[2-(1-ethyl-4-piperidyl)ethylamino]-6-(3-methylsulfonylphenyl)pyrido[2,3-d]pyrimidin-7-one]: the IC50 was found to be 1.7 µM. On to `CCn1c(=O)c(-c2ccc(S(C)(=O)=O)cc2)cc2cnc(N[C@H]3[C@@H]4CNC[C@@H]43)nc21` [Compound I-10, 2-[[(1R,5S)-3-azabicyclo[3.1.0]hexan-6-yl]amino]-8-ethyl-6-(4-methylsulfonylphenyl)pyrido[2,3-d]pyrimidin-7-one], for which the IC50 was above 4.5 µM. With `CCn1c(=O)c(-c2ccc(S(C)(=O)=O)cc2)cc2cnc(NCCC3CCN(C)CC3)nc21` [Compound I-7, 8-ethyl-2-[2-(1-methyl-4-piperidyl)ethylamino]-6-(4-methylsulfonylphenyl)pyrido[2,3-d]pyrimidin-7-one], the 50% inhibitory concentration (IC50) is above 4.5 µM. `CCNc1ncc2cc(-c3cccc(S(C)(=O)=O)c3)c(=O)n(CC)c2n1` [Compound I-3, 8-Ethyl-2-(ethylamino)-6-(3-methylsulfonylphenyl)pyrido[2,3-d]pyrimidin-7-one]: the IC50 was above 4.5 µM.

As for `CCN1CCC(CCNc2ncc3cc(-c4ccccc4S(C)(=O)=O)c(=O)n(CC)c3n2)CC1` [Compound I-5, 8-ethyl-2-[2-(1-ethyl-4-piperidyl)ethylamino]-6-(2-methylsulfonylphenyl)pyrido[2,3-d]pyrimidin-7-one], the IC50 was above 4.5 µM.

For `CCN1CCC(CCNc2ncc3cc(-c4ccc(S(C)(=O)=O)cc4)c(=O)n(CC)c3n2)CC1` [Compound I-6, 8-ethyl-2-[2-(1-ethyl-4-piperidyl)ethylamino]-6-(4-methylsulfonylphenyl)pyrido[2,3-d]pyrimidin-7-one], the half-maximal inhibitory concentration (IC50) is above 4.5 µM. As to `CCn1c(=O)c(-c2ccccc2S(C)(=O)=O)cc2cnc(NCCC3CCN(C)CC3)nc21` [Compound I-1, 8-Ethyl-2-((2-(1-methylpiperidin-4-yl)ethyl)amino)-6-(2-(methylsulfonyl)phenyl)pyrido[2,3-d]pyrimidin-7(8H)-one], the concentration for half-maximal inhibition (IC50) was above 4.5 µM.

`CCn1c(=O)c(-c2ccc(S(C)(=O)=O)nc2)cc2cnc(NCCC3CCN(C)CC3)nc21` [Compound I-11, 8-ethyl-2-[2-(1-methyl-4-piperidyl)ethylamino]-6-(6-methylsulfonyl-3-pyridyl)pyrido[2,3-d]pyrimidin-7-one]: the half-maximal inhibitory concentration (IC50) was 3.5 µM. `CCn1c(=O)c(-c2ccc(S(=O)(=O)C3CC3)cc2)cc2cnc(NCCC3CCN(C)CC3)nc21` [Compound I-9, 6-(4-cyclopropylsulfonylphenyl)-8-ethyl-2-[2-(1-methyl-4-piperidyl)ethylamino]pyrido[2,3-d]pyrimidin-7-one]: the 50% inhibitory concentration (IC50) turned out to be 3 µM.

(Values after patent US20140323478A1, “SERINE/THREONINE KINASE INHIBITORS” (Afraxis Holdings, Inc., priority 2013, published 2014).)
